Key:
[1] = system: CDC & FDA Antibiotic Resistant P. aeruginosa Isolate Bank; experiment: CDC clinical isolate panel growth inhibition; type: cell-based; conditions: 50 μg/mL
Description: Strains with growth inhibition>80% were considered sensitive to fluorofolin treatment.
Clinical isolates^45 were inoculated into LB Broth a 96-well flat bottom plate and grown overnight to stationary phase at 37° C. […] Percent growth was calculated by dividing OD600 of fluorofolin antibiotic treated wells to vehicle only wells.

E. coli MG1655 = experiment: Growth with TMI supplementation; type: cell-based; conditions: E. coli MG1655, fluorofolin 2×MIC, 0.3 mM thymine, methionine, inosine
Description: (§1) FIGS. 3A and 3B characterize the growth of E. coli MG1655 and P. aeruginosa PA14 respectively in 0.3 mM thymine, methionine, and inosine (TMI) supplemented media and treated with fluorofolin at 2×MIC or DMSO. Curves represent optical at 600 nm (OD600) of 2 biological replicates. Mean±SD are shown.
(§2) Where listed, growth media were prepared according manufacturer recommendations: LB Broth and LB Broth supplemented with 0.3 mM thymine (BD Biosciences 244610, Alfa Aesar A15879), 0.3 mM methionine (Sigma-Aldrich M9625), 0.3 mM inosine (EMD Millipore 4060), Mueller Hinton II Broth (Cation-Adjusted)/(CAMHB) (BD 212322) or 0.3 mM thymidine (Sigma-Aldrich T1895), Gutnick Minimal Media (1.0 g/L K2SO4, 13.5 g/L K2HPO4, 4.7 g/L KH2PO4, 0.1 g/L of MgSO4-7H2O, 10 mM NH4Cl as a nitrogen source, and 0.4% w/v glucose as a carbon source)^62.

P. aeruginosa PA14 [2] = experiment: Growth with TMI supplementation; type: cell-based; conditions: P. aeruginosa PA14, fluorofolin 2×MIC, 0.3 mM TMI
Description: as §1, §2

[3] = Maximum tolerated dose (MTD); type: in vivo, mouse; conditions: administered subcutaneously (SC), CD-1 mice
Description: P. aeruginosa thigh infection model and MTD studies: Care and handling of Female 5-6-week-old CD-1 conformed to institutional animal care and use policies as carried out at University of North Texas Health Science Center (Fort Worth, Texas). Rodents were fed either base chow or base diet supplemented with 1.8 g/kg thymidine (Sigma T9250) obtained from Envigo starting two days before infection.
MTD was determined through administration of compounds at increasing dosage until the maximum dose before adverse reactions were observed. Doses were increased in a stepwise manner from 1 mg/kg to 5, 10, 25, 50 mg/kg. […] MTD was evaluated by the University of North Texas Health Science Center (Fort Worth, Texas).

[4] = system: folate metabolism in P. aeruginosa; experiment: Metabolomics (LC-MS metabolite abundance); type: cell-based; conditions: PA14, 2×MIC for 15 min, vs solvent control; P=0.0186 and 0.0196
Description: Metabolite abundance was quantified in comparison to the solvent only control. Data represents mean±SD for 3 biological replicates. P values were calculated using unpaired t-test using Prism 9 (P values≤0.05)
To test the ability of fluorofolin to inhibit P. aeruginosa DHFR in vivo, metabolomics were performed. As a positive control for DHFR inhibition, we turned to TMP.
Overnight P. aeruginosa PA14 cultures were diluted 1:150 in Gutnick Minimal Media and grown to early-mid exponential phase (OD600=0.4-0.6).
LC-MS analysis of metabolites was performed on Orbitrap Exploris 240 mass spectrometer coupled with hydrophilic interaction liquid chromatography (HILIC)^64. […] Flow rate was 0.15 mL/min, and column temperature was set at 25° C. […] The orbitrap resolution was 180,000 at m/z of 200. The maximum injection time was 200 ms, and the automatic gain control (AGC) target was 1000%. Raw mass spectrometry data were converted to mzXML format by MSConvert (ProteoWizard). Pick-peaking was done on El Maven (v0.8.0, Elucidata).

P. aeruginosa PA14 [5] = experiment: Membrane permeability, TO-PRO-3 flow cytometry; type: cell-based; conditions: PA14, 2×MIC, 15 min
Description: FIG. 5A provides flow cytometry results of PA14 stained with the membrane permeability dye TO-PRO-3. […]. The gates were determined for TO-PRO-3 staining using solvent only and polymixin B controls.
(§3) The ability of fluorofolin to permeabilize P. aeruginosa PA14 was examined. Specifically, flow cytometry of P. aeruginosa stained with TO-PRO-3 was used, treated the bacteria with 2×MIC, and analyzed membrane integrity. […] It was hypothesized that this decrease in membrane targeting might also decrease toxicity due to the disruption of eukaryotic membranes.
(§4) Overnight P. aeruginosa PA14 or E. coli lptD4213 cultures were diluted 1:100 and grown to mid exponential phase at 37° C. Cultures were diluted 1:10 into PBS and treated with antibiotics for 15 minutes. P. aeruginosa PA14 was stained with TO-PRO-3 (640 nm excitation, 670/30 nm emission) to measure cell membrane integrity. […] DiOC2(3) was evaluated as a ratio of green (488 nm excitation, 525/50 nm emission) to red (488 nm excitation, 610/20 nm emission) (Novo et al., 1999). […] 100,000 events were recorded for each data file. Gates for permeabilization were determined using Polymixin B (Sigma-Aldrich P1004) and untreated controls. Gates for depolarization were determined using CCCP as a positive control. Data was analyzed using FlowJo v10 software (FlowJo LLC, Ashland, OR).

E. coli lptD4213 = experiment: Membrane potential and permeability, TO-PRO-3 and DiOC2(3) flow cytometry; type: cell-based; conditions: E. coli lptD4213, 2×MIC
Description: FIG. 5B provides flow cytometry of E. coli lptD4213 treated with 5% DMSO, 5 μM CCCP, or 2×MIC fluorofolin 0.04 μg/mL polymixin B, and 0.4 μg/mL trimethoprim and stained with TO-PRO-3 and DiOC2(3).
as §3, §4

P. aeruginosa PA14 [6] = experiment: Checkerboard assay of fluorofolin and sulfamethoxazole; type: cell-based
Description: FIG. 2B is a Checkerboard assay of fluorofolin and sulfamethoxazole. Z-values represent fractional inhibitory concentrations (FICs). FICs were determined by dividing the MIC of each drug when used in combination by the MIC when used alone. FIC of less than or equal to 0.5 is considered a synergistic effect.
Cells were seeded in a similar manner as described above for MIC calculations. Sulfamethoxazole (Chem-Impex 00821) was diluted 1:2 down the rows of the plate, while fluorofolin was diluted 1:2 down the column of the plate. Fractional inhibitory concentrations (FICs) were calculated as [fluorofolin]/MICFluorofolin+[SMX]/MICSMX where [fluorofolin] and [SMX] are the concentrations of compounds in given well, which are dividing by the concentration of drug at the MIC for each compound. FIC values less than or equal to 0.5 are considered synergistic.

With `Nc1nc(N)c2c(ccc3c2ccn3Cc2ccnc(F)c2)n1` [fluorofolin] the “sensitivity of isolates expressing KPC-5 and NDM-1 carbapenemase genes” value [1] was “remained sensitive”, the “sensitivity of strains 7, 18 and 23 of the CDC panel (dfrB2)” value [1] was “fluorofolin-sensitive” and the clinical isolates resistant ([1]; OD600 vs vehicle control) was 14.5%. For the same compound, the “rescue of growth inhibition by TMI supplementation” value (E. coli MG1655) was “could also be rescued”, the “rescue of growth inhibition by TMI supplementation” value (P. aeruginosa PA14 [2]) was “unable to rescue” and the maximum tolerated dose [3] was 25 mg/kg. For the same compound, the “abundance of AICAR and dUMP” value [4] was “significant upregulation”, the “disruption of membranes (TO-PRO-3)” value (P. aeruginosa PA14 [5]) was “does not cause significant disruption” and the “membrane depolarization or permeabilization” value (E. coli lptD4213) was “does not cause membrane depolarization or permeabilization”. For the same compound, the MIC (P. aeruginosa PA14 [6]; Pseudomonas aeruginosa, PA14, SMX 156 μg/mL, read-out: MIC of fluorofolin in the presence of SMX) was 0.4 µg/mL and the “synergy (FIC, checkerboard)” value (P. aeruginosa PA14 [6]; combination of fluorofolin and sulfamethoxazole (SMX), PA14) was “significant synergy”.
